In US20260022143A1, “Cyclic Peptide Inhibitors of IL-23” (JANSSEN PHARMACEUTICA NV, priority 2022, published 2026):
Starred links: 1 amine or outer side, 2 acyl side, 3 side chain; linkers in the order of their positions; H or OH if unused. Positions of bridges follow the written chain, without caps; N, C: chain ends. Non-standard residues stand in square brackets, D forms with d. Residues, ends and D or L forms follow the SMILES beside them. Groups on a side chain read outwards from the residue. *: point of attachment. X78 = N=C(N)NCCc1cn(-c2ccc(C[C@H](N[*:1])C(=O)[*:2])cc2)nn1; Me3N+(CH2)2O(CH2)2O(CH2)2CO = C[N+](C)(C)CCOCCOCCC(=O)*; CH2CH2OCH2CH2OCH2CH2NMe3+ = C[N+](C)(C)CCOCCOCC*; Trp(7-Me) = Cc1cccc2c(C[C@H](N)C(=O)O)c[nH]c12; Abu(4-yl) = O=C([C@H](CC[*:3])N[*:1])[*:2]; Pentanoyl(5-guanidino) = NC(N)=NCCCCC(=O)*; X71 = C[N+](C)(C)CC(F)(F)C(F)(F)C(F)(F)C*; γGlu = O=C(O)[C@H](CCC(=O)[*:2])N[*:1]; 2Nal = N[C@@H](Cc1ccc2ccccc2c1)C(=O)O; AEF = NCCOc1ccc(C[C@H](N)C(=O)O)cc1; 3Pal = N[C@@H](Cc1cccnc1)C(=O)O; Lys(Me) = CNCCCC[C@H](N)C(=O)O; NMeK = CN[C@@H](CCCCN)C(=O)O; Pen = CC(C)(S)[C@H](N)C(=O)O; Lauroyl = CCCCCCCCCCCC(=O)*; αMeC = C[C@](N)(CS)C(=O)O; Ac6c = NC1(C(=O)O)CCCCC1; Nle = CCCC[C@H](N)C(=O)O; Thp = NC1(C(=O)O)CCOCC1; X3 = C[N+](C)(C)CCCCC*; AEEA = NCCOCCOCC(=O)O; Sar = CNCC(=O)O

target: T1, IL-23R (Homo sapiens, UniProt Q5VWK5); test: IL23R Reporter Assay; format: cell-based; details: HEK293 cells containing IL-23R, IL-12RP1 and STAT-inducible firefly luciferase reporter; 10 ng/mL IL-23 (EC90); 5 h at 37° C.; read-out: IL23R Reporter Assay
T1 construct: host or cells: HEK293
T1 sequence (Q5VWK5 24-629): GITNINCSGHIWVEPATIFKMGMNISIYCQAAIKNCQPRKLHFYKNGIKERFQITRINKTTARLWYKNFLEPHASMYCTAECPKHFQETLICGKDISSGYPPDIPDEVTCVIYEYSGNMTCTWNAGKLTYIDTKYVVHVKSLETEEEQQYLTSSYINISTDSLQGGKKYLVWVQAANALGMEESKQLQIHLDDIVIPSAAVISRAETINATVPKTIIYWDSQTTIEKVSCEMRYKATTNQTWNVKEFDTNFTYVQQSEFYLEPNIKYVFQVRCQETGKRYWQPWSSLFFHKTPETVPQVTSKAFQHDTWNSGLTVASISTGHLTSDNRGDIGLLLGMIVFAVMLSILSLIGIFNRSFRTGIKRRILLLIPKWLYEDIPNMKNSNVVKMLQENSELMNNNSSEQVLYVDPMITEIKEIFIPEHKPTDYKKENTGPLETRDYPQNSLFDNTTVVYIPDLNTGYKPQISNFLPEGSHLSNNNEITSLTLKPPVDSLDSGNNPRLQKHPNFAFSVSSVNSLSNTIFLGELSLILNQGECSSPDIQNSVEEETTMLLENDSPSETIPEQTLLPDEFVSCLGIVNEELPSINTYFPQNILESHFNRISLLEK

Structure (SMILES) | IC50 [nM]
CCCCCCCCCCCC(=O)N[C@@H](CCC(=O)NCCOCCOCC(=O)NCCOCCOCC(=O)NCCCC[C@H](NC(=O)C1(NC(=O)[C@H](Cc2ccc3ccccc3c2)NC(=O)[C@H](Cc2ccc(OCCCCC[N+](C)(C)C)cc2)NC(=O)[C@H]2NC(=O)[C@H](CCCCNC(C)=O)NC(=O)[C@H](Cc3c[nH]c4c(C)cccc34)NC(=O)[C@H]([C@@H](C)O)NC(=O)[C@H](CC(=O)N(C)C)NC(=O)[C@@H](NC(=O)CCOCCOCC[N+](C)(C)C)C(C)(C)SSC2(C)C)CCOCC1)C(=O)N[C@@H](CC(N)=O)C(=O)N[C@@H](Cc1cccnc1)C(=O)N(C)[C@@H](CCCCNC(=O)COCCOCCNC(=O)COCCOCCNC(=O)CC[C@H](NC(=O)CCCCCCCCCCC)C(=O)O)C(N)=O)C(=O)O [compound 353, cPEG3aCO-Pen(3)-N(N(Me)2)-T-7MeW-K(Ac)-Pen(3)-TMAPF-2Nal-THP-K(PEG2PEG2gEC12)-N-3Pya-NMeK(PEG2PEG2gEC12)-CONH2] ({Me3N+(CH2)2O(CH2)2O(CH2)2CO}-[Pen]D(NMe2)T[Trp(7-Me)]K(Ac)[Pen]Y(X3)[2Nal][Thp]K([AEEA-AEEA-γGlu-Lauroyl])N[3Pal][NMeK]([AEEA-AEEA-γGlu-Lauroyl])-NH2; disulfide 1-6) | 140
CCCCCCCCCCCC(=O)N[C@@H](CCC(=O)NCCOCCOCC(=O)NCCOCCOCC(=O)NCCOCCOCC(=O)NCCCC[C@H](NC(=O)C1(NC(=O)[C@H](Cc2ccc3ccccc3c2)NC(=O)[C@H](Cc2ccc(OCCCCC[N+](C)(C)C)cc2)NC(=O)[C@H]2NC(=O)[C@H](CCCCNC(C)=O)NC(=O)[C@H](Cc3c[nH]c4c(C)cccc34)NC(=O)[C@H]([C@@H](C)O)NC(=O)[C@H](CC(=O)N(C)C)NC(=O)[C@@H](NC(=O)CCOCCOCC[N+](C)(C)C)C(C)(C)SSC2(C)C)CCOCC1)C(=O)N[C@@H](CC(N)=O)C(=O)N[C@@H](Cc1cccnc1)C(=O)N(C)[C@@H](CCCCNC(=O)COCCOCCNC(=O)COCCOCCNC(=O)COCCOCCNC(=O)CC[C@H](NC(=O)CCCCCCCCCCC)C(=O)O)C(N)=O)C(=O)O [compound 373, cPEG3aCO-Pen(3)-N(N(Me)2)-T-7MeW-K(Ac)-Pen(3)-TMAPF-2Nal-THP-K(PEG2PEG2PEG2gEC12))-N-3Pya-NMeK(PEG2PEG2PEG2gEC12)-CONH2] ({Me3N+(CH2)2O(CH2)2O(CH2)2CO}-[Pen]D(NMe2)T[Trp(7-Me)]K(Ac)[Pen]Y(X3)[2Nal][Thp]K([AEEA-AEEA-AEEA-γGlu-Lauroyl])N[3Pal][NMeK]([AEEA-AEEA-AEEA-γGlu-Lauroyl])-NH2; disulfide 1-6) | 87
CCCCCCCCCCCC(=O)N[C@@H](CCC(=O)NCCOCCOCC(=O)NCCOCCOCC(=O)NCCCC[C@@H]1NC(=O)[C@@H](NC(=O)CCOCCOCC[N+](C)(C)C)C(C)(C)SSC(C)(C)[C@@H](C(=O)N[C@@H](Cc2ccc(OCCCCC[N+](C)(C)C)cc2)C(=O)N[C@@H](Cc2ccc3ccccc3c2)C(=O)NC2(C(=O)N[C@@H](CCCCN(C)C(C)=O)C(=O)N[C@@H](CC(N)=O)C(=O)N[C@@H](Cc3cccnc3)C(=O)N(C)CC(=O)N(C)C)CCOCC2)NC(=O)[C@H](CCCCN(C)C(C)=O)NC(=O)[C@H](Cc2c[nH]c3c(C)cccc23)NC(=O)[C@H]([C@@H](C)O)NC1=O)C(=O)O [compound 387, cPEG3aCO-Pen(3)-K(PEG2PEG2gEC12)-T-7MeW-K(NMeAc)-Pen(3)-TMAPF-2Nal-THP-K(NMeAc)-N-3Pya-Sar-CON(Me)2] ({Me3N+(CH2)2O(CH2)2O(CH2)2CO}-[Pen]K([AEEA-AEEA-γGlu-Lauroyl])T[Trp(7-Me)][Lys(Me)](Ac)[Pen]Y(X3)[2Nal][Thp][Lys(Me)](Ac)N[3Pal][Sar]-NMe2; disulfide 1-6) | 12
CC(=O)N(C)CCCC[C@@H]1NC(=O)[C@H](Cc2c[nH]c3c(C)cccc23)NC(=O)[C@H]([C@@H](C)O)NC(=O)[C@H](CC(=O)N(C)C)NC(=O)[C@@H](NC(=O)CCCCNC(=N)N)C(C)(C)SSC(C)(C)[C@@H](C(=O)N[C@@H](Cc2ccc(OCCCCC[N+](C)(C)C)cc2)C(=O)N[C@@H](Cc2ccc3ccccc3c2)C(=O)NC2(C(=O)N[C@@H](CCCCN(C)C(C)=O)C(=O)N[C@@H](CC(N)=O)C(=O)N[C@@H](Cc3cccnc3)C(=O)N(C)CC(=O)N(C)C)CCOCC2)NC1=O [compound 403, 4cpgCO-Pen(3)-N(N(Me)2)-T-7MeW-K(NMeAc)-Pen(3)-TMAPF-2Nal-THP-K(NMeAc)-N-3Pya-Sar-CON(Me)2] ({Pentanoyl(5-guanidino)}-[Pen]D(NMe2)T[Trp(7-Me)][Lys(Me)](Ac)[Pen]Y(X3)[2Nal][Thp][Lys(Me)](Ac)N[3Pal][Sar]-NMe2; disulfide 1-6) | 4.5
CC(=O)NCCCC[C@@H]1NC(=O)[C@H](Cc2c[nH]c3ccccc23)NC(=O)[C@H]([C@@H](C)O)NC(=O)[C@H](CC(N)=O)NC(=O)[C@@H](NC(=O)[C@@H](CCCNC(=N)N)NC(=O)CCOCCOCC[N+](C)(C)C)CCSC[C@@](C)(C(=O)N[C@@H](Cc2ccc(OCCN)cc2)C(=O)N[C@@H](Cc2ccc3ccccc3c2)C(=O)NC2(C(=O)N[C@@H](CCCCNC(C)=O)C(=O)N[C@@H](CC(N)=O)C(=O)N[C@@H](Cc3cccnc3)C(=O)N(C)CC(N)=O)CCCCC2)NC1=O [compound 548, cPEG3aCO-r-Abu(1)-N-T-W-K(Ac)-aMeC(1)-AEF-2Nal-THP-K(Ac-N-3Pya-Sar-CONH2] ({Me3N+(CH2)2O(CH2)2O(CH2)2CO}-[dR][Abu(4-yl)]NTWK(Ac)[αMeC][AEF][2Nal][Ac6c]K(Ac)N[3Pal][Sar]-NH2; thioether 2-7) | 6.4

Other lines, results leading:

IC50 [nM] | Structure (SMILES)
3.5 | CC(=O)NCCCC[C@@H]1NC(=O)[C@H](Cc2c[nH]c3c(-c4cccc(NC(C)=O)c4)cccc23)NC(=O)[C@H]([C@@H](C)O)NC(=O)[C@H](CC(N)=O)NC(=O)[C@@H](NC(=O)CCOCCOCC[N+](C)(C)C)C(C)(C)SSC(C)(C)[C@@H](C(=O)N[C@@H](Cc2ccc(OCCNC(=N)N)cc2)C(=O)N[C@@H](Cc2ccc3ccccc3c2)C(=O)NC2(C(=O)N[C@@H](CCCCN(C)C(C)=O)C(=O)N[C@@H](CC(N)=O)C(=O)N[C@@H](Cc3cncc(C)c3)C(=O)N(C)CC(N)=O)CCOCC2)NC1=O [compound 481, cPEG3aCO-Pen(3)-N-T-7(3NAcPh)W-K(Ac)-Pen(3)-AEF(G)-2Nal-THP-K(NMeAc)-N-5MePyridinAla-Sar-CONH2]
1.4 | CCCC[C@H](NC(=O)C1(NC(=O)[C@H](Cc2ccc3ccccc3c2)NC(=O)[C@H](Cc2ccc(OCCOCCOCC[N+](C)(C)C)cc2)NC(=O)[C@H]2NC(=O)[C@H](CCCCN(C)C(C)=O)NC(=O)[C@H](Cc3c[nH]c4c(C)cccc34)NC(=O)[C@H]([C@@H](C)O)NC(=O)[C@H](CC(=O)N(C)C)NC(=O)[C@@H](NC(=O)CCOCCOCC[N+](C)(C)C)C(C)(C)SSC2(C)C)CCOCC1)C(=O)N[C@@H](CC(N)=O)C(=O)N[C@@H](Cc1cccnc1)C(=O)N(C)CC(=O)N(C)C [compound 520, cPEG3aCO-Pen(3)-N(N(Me)2)-T-7MeW-K(NMeAc)-Pen(3)-APEG3F-2Nal-THP-Nle-N-3Pya-Sar-CON(Me)2] ({Me3N+(CH2)2O(CH2)2O(CH2)2CO}-[Pen]D(NMe2)T[Trp(7-Me)][Lys(Me)](Ac)[Pen]Y(CH2CH2OCH2CH2OCH2CH2NMe3+)[2Nal][Thp][Nle]N[3Pal][Sar]-NMe2; disulfide 1-6)
1.4 | CC(=O)NCCCC[C@@H]1NC(=O)[C@H](Cc2c[nH]c3c(C)cccc23)NC(=O)[C@H]([C@@H](C)O)NC(=O)[C@H](CC(N)=O)NC(=O)[C@@H](NC(=O)CCOCCOCC[N+](C)(C)C)C(C)(C)SSC(C)(C)[C@@H](C(=O)N[C@@H](Cc2ccc(-n3cc(CCNC(=N)N)nn3)cc2)C(=O)N[C@@H](Cc2ccc3ccccc3c2)C(=O)NC2(C(=O)N[C@@H](CCCCNC(C)=O)C(=O)N[C@@H](CC(N)=O)C(=O)N[C@@H](Cc3cccnc3)C(=O)N(C)CC(N)=O)CCOCC2)NC1=O [compound 521, cPEG3aCO-Pen(3)-N-T-7MeW-K(Ac)-Pen(3)-F(4TzlG2)-2Nal-THP-K(Ac)-N-3Pya-Sar-CONH2] ({Me3N+(CH2)2O(CH2)2O(CH2)2CO}-[Pen]NT[Trp(7-Me)]K(Ac)[Pen][X78][2Nal][Thp]K(Ac)N[3Pal][Sar]-NH2; disulfide 1-6)

same assay, conditions: IL23R Reporter Assay (micromolar), HEK293 cells containing IL-23R, IL-12RP1 and STAT-inducible firefly luciferase reporter; 10 ng/mL IL-23 (EC90); 5 h at 37° C.

Structure (SMILES) | IC50 [nM]
CC(=O)N(C)CCCC[C@@H]1NC(=O)[C@H](Cc2c[nH]c3c(C)cccc23)NC(=O)[C@H]([C@@H](C)O)NC(=O)[C@H](CC(=O)N(C)C)NC(=O)[C@@H](NC(=O)CCOCCOCC[N+](C)(C)C)C(C)(C)SSC(C)(C)[C@@H](C(=O)N[C@@H](Cc2ccc(OCC(F)(F)C(F)(F)C(F)(F)C[N+](C)(C)C)cc2)C(=O)N[C@@H](Cc2ccc3ccccc3c2)C(=O)NC2(C(=O)N[C@@H](CCCCN(C)C(C)=O)C(=O)N[C@@H](CC(N)=O)C(=O)N[C@@H](Cc3cccnc3)C(=O)N(C)CC(=O)N(C)C)CCOCC2)NC1=O [compound 338, cPEG3aCO-Pen(3)-N(N(Me)2)-T-7MeW-K(NMeAc)-Pen(3)-hFTMAPF-2Nal-THP-K(NMeAc)-N-3Pya-Sar-CON(Me)2] ({Me3N+(CH2)2O(CH2)2O(CH2)2CO}-[Pen]D(NMe2)T[Trp(7-Me)][Lys(Me)](Ac)[Pen]Y(X71)[2Nal][Thp][Lys(Me)](Ac)N[3Pal][Sar]-NMe2; disulfide 1-6) | 1.6
